From patent US8183216B2, “Nucleoside derivatives as inhibitors of viral polymerases” (Istituto Di Ricerche Di Biologia Molecolare P. Angeletti …, priority 2007, dated 2012)

Key:
[1] = biological target: T1, HCV NS5B RNA-dependent RNA polymerase (Hepatitis C virus genotype 1b, UniProt P26663); experiment: Assay for inhibition of HCV NS5B polymerase (heteromeric RNA template, 3H-UTP incorporation); format: biochemical; conditions: activity ranges
T1 construct: RNA-dependent RNA polymerase (NS5B) of the hepatitis C virus (HCV)
T1 sequence (P26663 2420-2955): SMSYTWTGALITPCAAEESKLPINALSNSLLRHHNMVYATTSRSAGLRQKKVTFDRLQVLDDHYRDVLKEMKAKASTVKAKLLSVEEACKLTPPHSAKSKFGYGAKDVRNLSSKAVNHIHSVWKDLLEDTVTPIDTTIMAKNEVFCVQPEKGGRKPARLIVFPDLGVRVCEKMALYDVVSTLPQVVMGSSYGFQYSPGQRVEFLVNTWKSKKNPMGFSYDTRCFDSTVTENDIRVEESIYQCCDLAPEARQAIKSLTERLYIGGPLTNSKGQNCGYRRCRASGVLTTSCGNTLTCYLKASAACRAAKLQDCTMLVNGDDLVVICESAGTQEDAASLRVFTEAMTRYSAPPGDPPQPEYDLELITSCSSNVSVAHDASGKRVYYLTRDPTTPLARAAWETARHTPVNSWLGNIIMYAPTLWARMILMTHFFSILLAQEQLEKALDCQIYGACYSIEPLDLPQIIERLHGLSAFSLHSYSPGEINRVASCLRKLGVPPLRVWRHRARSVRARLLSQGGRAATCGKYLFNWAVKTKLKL
Procedure: The effectiveness of the compounds of the present invention as inhibitors of HCV NS5B RNA-dependent RNA polymerase (RdRp) was measured in the following assay.
A. Assay for Inhibition of HCV NS5B Polymerase:
This assay was used to measure the ability of the nucleoside derivatives of the present invention to inhibit the enzymatic activity of the RNA-dependent RNA polymerase (NS5B) of the hepatitis C virus (HCV) on a heteromeric RNA template.
Assay Buffer Conditions: (52.5 μL-total/reaction) • 20 mM Tris, pH 7.5 • 45 mM KCl • 2 mM MgCl2 • 0.01% Triton X-100 • 1 μg BSA, DNase Free • 1 mM DTT • 2 nM DC55-1b.BK or 10 nM DC55-2b.2 • 20 nM heterogeneous template dCoh • UTP 1 uM • ATP 1 uM • CTP 1 uM • GTP 1 uM • 3H-UTP 1,000,000 cpm • 2.5 μl reaction inhibitor compound in H2O
The compounds were tested at various concentrations up to 100 μM final concentration. Nucleoside derivatives were pipetted into wells of a 96-well plate. The enzyme diluted in the reaction buffer was pipetted into the wells and incubated at room temperature for 10 minutes; then the template dCoh was added and incubated for 10 minutes at room temperature. The reaction was initiated by addition of a mixture of nucleotide triphosphates (NTP's), including the radiolabeled UTP, and allowed to proceed at room temperature for 2 hours. Blank samples were done omitting the dCoh template. The reaction was quenched by addition of 50 ul TCA 20% (trichloroacetic acid)/NaPPi 20 mM and the plates were put in ice for 5 minutes. Then, the mixtures were filtered onto Unifilter GF/B 96-well plates (PerkinElmer), washed with TCA 2.5%. P 50 ul/well of scintillator solution (Microscint 20, PerkinElmer) were added and the plates were counted in a scintillator counter.
The percentage of inhibition was calculated according to the following equation: % Inhibition=[1−(cpm in test reaction−cpm in blank)/(cpm in control reaction−cpm in blank)]×100.
Representative compounds were tested in the HCV NS5B polymerase assay and results are reported as IC50 activity ranges in Table B

[2] = tested on: HuH-7 cells containing a subgenomic HCV Replicon; experiment: Assay for inhibition of HCV RNA replication (subgenomic replicon, in situ RNase protection SPA); format: cell-based; conditions: Hepatitis C virus; HCV replication assay in HuH-7 replicon cells, activity ranges
Procedure: B. Assay for Inhibition of HCV RNA Replication:
The compounds of the present invention were also evaluated for their ability to affect the replication of Hepatitis C Virus RNA in cultured hepatoma (HuH-7) cells containing a subgenomic HCV Replicon. The details of the assay are described below. This Replicon assay is a modification of that described in V. Lohmann, F. Korner, J-O. Koch, U. Herian, L. Theilmann, and R. Bartenschlager, “Replication of a Sub-genomic Hepatitis C Virus RNAs in a Hepatoma Cell Line,” Science 285:110 (1999).
The assay was an in situ Ribonuclease protection, Scintillation Proximity based-plate assay (SPA). 10,000-40,000 cells were plated in 100-200 μL of media containing 0.8 mg/mL G418 in 96-well cytostar plates (Amersham). Compounds were added to cells at various concentrations up to 100 μM in 1% DMSO at time 0 to 18 h and then cultured for 24-96 h. Cells were fixed (20 min, 10% formalin), permeabilized (20 min, 0.25% Triton X-100/PBS) and hybridized (overnight, 50° C.) with a single-stranded ^33P RNA probe complementary to the (+) strand NS5B (or other genes) contained in the RNA viral genome. Cells were washed, treated with RNAse, washed, heated to 65° C. and counted in a Top-Count Inhibition of replication was read as a decrease in counts per minute (cpm).
Human HuH-7 hepatoma cells, which were selected to contain a subgenomic replicon, carry a cytoplasmic RNA consisting of an HCV 5′ non-translated region (NTR), a neomycin selectable marker, an EMCV IRES (internal ribosome entry site), and HCV non-structural proteins NS3 through NS5B, followed by the 3′ NTR.
Representative compounds were tested in the HCV replication assay and results are reported as EC50 activity ranges in Table C

Row | IC50 [1] [µM] | Structure (SMILES) | EC50 [2] [µM]
1 | < 1 | C[C@@]1(O)[C@H](O)[C@@H](COP(=O)(O)OP(=O)(O)OP(=O)(O)O)O[C@H]1n1cc2c3c(ncnc31)NC(=O)c1sccc1-2 [Compound 8, 2-[5-O-(hydroxy{[hydroxy(phosphonooxy)phosphoryl]oxy}phosphoryl)-2-C-methyl-beta-D-ribofuranosyl]-2,6-dihydro-7H-8-thia-2,3,5,6-tetraazabenzo[cd]cyclopenta[h]azulen-7-one] | –
2 | 1 to 30 | C[C@@]1(O)[C@H](O)[C@@H](COP(=O)(O)OP(=O)(O)OP(=O)(O)O)O[C@H]1n1cc2c3c(ncnc31)NCc1sccc1-2 [Compound 7, 2-[5-O-(hydroxy{[hydroxy(phosphonooxy)phosphoryl]oxy}phosphoryl)-2-C-methyl-beta-D-ribofuranosyl]-6,7-dihydro-2H-8-thia-2,3,5,6-tetraazabenzo[cd]cyclopenta[h]azulene] | –
3 | < 1 | C[C@@]1(O)[C@H](O)[C@@H](COP(=O)(O)OP(=O)(O)OP(=O)(O)O)O[C@H]1n1cc2c3c(ncnc31)NC(=O)c1ccccc1-2 [Compound 5, 2-[5-O-(hydroxy{[hydroxy(phosphonooxy)phosphoryl]oxy}phosphoryl)-2-C-methyl-beta-D-ribofuranosyl]-2,6-dihydro-7H-2,3,5,6-tetraazadibenzo[cd,h]azulen-7-one] | –
4 | 1 to 30 | C[C@@]1(O)[C@H](O)[C@@H](COP(=O)(O)OP(=O)(O)OP(=O)(O)O)O[C@H]1n1cc2c3c(ncnc31)NCc1ccccc1-2 [Compound 6, 2-[5-O-(hydroxy{[hydroxy(phosphonooxy)phosphoryl]oxy}phosphoryl)-2-C-methyl-beta-D-ribofuranosyl]-6,7-dihydro-2H-2,3,5,6-tetraazadibenzo[cd,h]azulene] | –

The remaining lines, values behind:

Row | Structure (SMILES) | IC50 [1] [µM] | EC50 [2] [µM]
5 | CC1(O)C(n2cc3c4c(ncnc42)NC(=O)c2sccc2-3)O[C@H](CO)[C@H]1O (single isomer, unassigned) [Compound 3, 2-(2-C-methyl-beta-D-ribofuranosyl)-2,6-dihydro-7H-8-thia-2,3,5,6-tetraazabenzo[CD]cyclopenta[H]azulen-7-one] | – | < 30
6 | C[C@@]1(O)[C@H](O)[C@@H](CO)O[C@H]1n1cc2c3c(ncnc31)NC(=O)c1ccccc1-2 [Compound 1, 2-(2-C-methyl-beta-D-ribofuranosyl)-2,6-dihydro-7H-2,3,5,6-tetraazadibenzo[C,D,H]azulen-7-one] | – | < 30
7 | C[C@@]1(O)[C@H](O)[C@@H](CO)O[C@H]1n1cc2c3c(ncnc31)NCc1ccccc1-2 [Compound 2, 2-(2-C-methyl-beta-D-ribofuranosyl)-6,7-dihydro-2H-2,3,5,6-tetraazadibenzo[cd,h]azulene] | – | 30 to 50
8 | CC1(O)C(n2cc3c4c(ncnc42)NCc2sccc2-3)O[C@H](CO)[C@H]1O (single isomer, unassigned) [Compound 4, 2-(2-C-methyl-beta-D-ribofuranosyl)-6,7-dihydro-2H-8-thia-2,3,5,6-tetraazabenzo[CD]cyclopenta[H]azulene] | – | < 30
